The results in this text go back to publication PMC2951497 (Journal of medicinal chemistry, 2010).

“Also recorded” adds a separate entry of the source.

Assay [1] has as its target 5-HT4 receptors (Homo sapiens, UniProt Q13639). In words: GloSensor L9 assay for cAMP response. The note with it: agonist/inverse agonist assay; Ag. = agonist; Inv. Ag. = Inverse agonist. Format: cell-based.
Assay [2] has as its target human recombinant 5-HT4 receptors (h5-HT4) (Homo sapiens, UniProt Q13639). In words: NIMH-PDSP binding to human recombinant 5-HT4 receptors, [3H]GR 113808. The note with it: for h5-HT4 Ki: h5-HT4 receptors expressed in HEK293T cells, averages of triplicate measurements.
Assay [3] concerns the target h5-HT1E (Homo sapiens, UniProt P28566). The assay is described as follows: NIMH-PDSP binding screen.
Assay [4] addresses BZP (rat brain site). The assay is described as follows: NIMH-PDSP binding screen. The note with it: read-out: Binding affinities (Ki) BZP (rat brain site).
For assay [5], the target named is hGABAA. In words: NIMH-PDSP binding screen. The note with it: read-out: Binding affinities (Ki) hGABAA. The arrangement: species or system human.

5-HT4 receptors, sequence (Q13639 whole entry): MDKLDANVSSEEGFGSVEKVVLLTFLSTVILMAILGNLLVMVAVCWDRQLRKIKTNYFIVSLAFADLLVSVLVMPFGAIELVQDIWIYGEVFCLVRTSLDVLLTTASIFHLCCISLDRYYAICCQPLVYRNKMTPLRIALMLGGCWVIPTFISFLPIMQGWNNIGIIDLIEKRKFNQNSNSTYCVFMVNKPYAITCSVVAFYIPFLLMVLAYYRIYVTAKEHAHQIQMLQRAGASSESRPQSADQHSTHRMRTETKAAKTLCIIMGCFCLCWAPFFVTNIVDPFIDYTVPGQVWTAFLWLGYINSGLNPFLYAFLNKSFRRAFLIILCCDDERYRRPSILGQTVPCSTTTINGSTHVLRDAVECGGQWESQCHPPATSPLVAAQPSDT
human recombinant 5-HT4 receptors (h5-HT4), sequence (Q13639 whole entry): as above
h5-HT1E, sequence (P28566 whole entry): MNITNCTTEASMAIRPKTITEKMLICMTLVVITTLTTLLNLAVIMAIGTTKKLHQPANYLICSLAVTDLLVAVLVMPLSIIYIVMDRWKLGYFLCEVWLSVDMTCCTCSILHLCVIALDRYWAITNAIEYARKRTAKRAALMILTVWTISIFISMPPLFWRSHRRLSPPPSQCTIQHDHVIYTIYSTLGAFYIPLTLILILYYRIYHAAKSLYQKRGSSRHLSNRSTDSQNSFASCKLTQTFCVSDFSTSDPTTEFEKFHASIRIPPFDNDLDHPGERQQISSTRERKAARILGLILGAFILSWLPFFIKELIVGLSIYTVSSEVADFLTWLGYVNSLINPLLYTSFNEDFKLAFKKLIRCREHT

As to `CCCCN1CCC(COC(=O)c2cc(I)c(N)c3c2OCCO3)CC1` [Compound 1, (1-Butylpiperidin-4-yl)methyl 8-amino-7-iodo-2,3-dihydrobenzo[b][1,4]dioxine-5-carboxylate, reference compound], in assay [1], the Efficacy entry is listed as “inverse agonists”.

Turning to `CCCCN1CCC(COC(=O)c2ccc(N)c3c2OCCO3)CC1` [Compound 4, reference compound], the Efficacy entry in assay [1] was “antagonists (inactive)”.

On to `CCCCN1CCC(COC(=O)c2cc(C)c(N)c3c2OCCO3)CC1` [Compound 7, (1-Butylpiperidin-4-yl)methyl 8-amino-7-methyl-2,3-dihydrobenzo[b][1,4]dioxine-5-carboxylate], for which, in assay [1], the Efficacy entry is “inactive”.

As to `CCCCN1CCC(COC(=O)c2cc(Cl)c(NC)c3c2OCCO3)CC1` [Compound 8, (1-Butylpiperidin-4-yl)methyl 7-chloro-8-(methylamino)-2,3-dihydrobenzo[b][1,4]dioxine-5-carboxylate], in assay [2], the “h5-HT4 Ki” value is listed as “low nanomolar; also recorded: binding affinity comparable to that of 1”. For the same compound, in assay [1], the Efficacy entry is listed as “inverse agonists”. The Ki in assay [3], in assay [4] and in assay [5] was more than 10 µM in each case.

Take `CCCCN1CCC(COC(=O)c2cc(Br)c(NC)c3c2OCCO3)CC1` [Compound 9, (1-Butylpiperidin-4-yl)methyl 7-bromo-8-(methylamino)-2,3-dihydrobenzo[b][1,4]dioxine-5-carboxylate]: in assay [2], the “h5-HT4 Ki” value is on record as “low nanomolar affinity”.

Consider `CCCCN1CCC(COC(=O)c2ccc(N)cc2OC)CC1` [Compound 12, (1-Butylpiperidin-4-yl)methyl 4-amino-2-methoxybenzoate], for which, in assay [1], the Efficacy entry is listed as “potent full agonist”.

In the case of `CCCCN1CCC(COC(=O)c2ccc(N)c(OC)c2)CC1` [Compound 13, (1-Butylpiperidin-4-yl)methyl 4-amino-3-methoxybenzoate], in assay [2] (5-HT4 receptor selectivity), the “selectivity against the full range of tested receptors and binding sites” value was “greater than 60 fold”. Moreover, the “h5-HT4 Ki” value in assay [2] is on record as “low nanomolar; also recorded: affinity comparable to that of 1”. Also, the Efficacy entry in assay [1] is “antagonists (inactive)”. The Ki in assay [4] and in assay [5] was more than 10 µM each time.

For the compound `CCCCN1CCC(COC(=O)c2cc(F)c(N)c3c2OCCO3)CC1` [Compound 17, (1-Butylpiperidin-4-yl)methyl 8-amino-7-fluoro-2,3-dihydrobenzo[b][1,4]dioxine-5-carboxylate], the “h5-HT4 Ki” value in assay [2] was “low nanomolar”. The Efficacy result in assay [1] is given as “inverse agonists”.

As usually defined, the Ki is a dissociation constant, usually derived from enzyme kinetics or from competition with a known ligand.
